Laboratory results as given in patent US20260001893A1, “SMALL MOLECULE MODULATORS OF STAT6” (Gilead Sciences, Inc., priority 2024, published 2026).

These compounds were tested on Eotaxin-3 (CCL26) release in human whole blood stimulated with IL-4 (assay: Human whole blood eotaxin-3 assay (IL-4 stimulated eotaxin-3 release)). Details: Homo sapiens, 48 h, human whole blood stimulated with recombinant human IL-4, 48 h; given for test compounds with <80% Emax; geometric mean.
Type: cell-based
In short: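 Lithium-heparin human whole blood was preincubated with compound (4-fold serial dilution, 0.5% DMSO final) for 2 h at 37° C, then stimulated with recombinant human IL-4 at […] final for 48 h. Eotaxin-3 (CCL26) in the supernatant was measured by MSD immunoassay.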

[2H]C([2H])([2H])N(C(=O)c1ccc(C2CCN([C@@H](C)c3cc4c(-n5c(F)cc(NC)cc5=O)ccnc4n3C)CC2)cc1)C([2H])([2H])[2H] [Example 1m97, 4-(1-((1S)-1-(4-(6-fluoro-4-(methylamino)-2-oxopyridin-1 (2H)-yl)-1-methyl-1H-pyrrolo[2,3-b]pyridin-2-yl)ethyl)piperidin-4-yl)-N,N-bis(methyl-d3)benzamide] showed an Emax of 10 to 20%.

Same assay, conditions: Homo sapiens, 48 h, human whole blood stimulated with recombinant human IL-4, 48 h; inhibition of eotaxin-3 release; given for test compounds with >80% Emax; geometric mean

In order of rising EC50:
1. Cc1cc(C(=O)N(C)C)cc(F)c1C1=CCN(Cc2cc3c(-n4ccc5c(c4=O)CCN5)ccnc3n2C)CC1 [Example 1m101, 3-fluoro-N,N,5-trimethyl-4-(1-((1-methyl-4-(4-oxo-1,2,3,4-tetrahydro-5H-pyrrolo[3,2-c]pyridin-5-yl)-1H-pyrrolo[2,3-b]pyridin-2-yl)methyl)-1,2,3,6-tetrahydropyridin-4-yl)benzamide]  3.02 nM
2. [2H]C([2H])([2H])N(C(=O)c1cc(C)c(C2=CCN([C@@H](C)c3cc4c(-n5ccc6c(c5=O)CCN6)ccnc4n3C)CC2)c(F)c1)C([2H])([2H])[2H] [Example 1m128, (S)-3-fluoro-5-methyl-N,N-bis(methyl-d3)-4-(1-(1-(1-methyl-4-(4-oxo-1,2,3,4-tetrahydro-5H-pyrrolo[3,2-c]pyridin-5-yl)-1H-pyrrolo[2,3-b]pyridin-2-yl)ethyl)-1,2,3,6-tetrahydropyridin-4-yl)benzamide]  3.42 nM
3. [2H]C([2H])([2H])N(C(=O)c1cc(C)c(C2=CCN([C@@H](C)c3cc4c(-n5ccc(N)cc5=O)ccnc4n3C)CC2)c(F)c1)C([2H])([2H])[2H] [Example 1m93, (S)-4-(1-(1-(4-(4-amino-2-oxopyridin-1 (2H)-yl)-1-methyl-1H-pyrrolo[2,3-b]pyridin-2-yl)ethyl)-1,2,3,6-tetrahydropyridin-4-yl)-3-fluoro-5-methyl-N,N-bis(methyl-d3)benzamide]  3.76 nM
4. CNc1nc(=O)n(-c2ccnc3c2cc([C@H](C)N2CC=C(c4c(C)cc(C(=O)N(C)C)cc4F)CC2)n3C)cc1F [Example 1m129, (S)-3-fluoro-4-(1-(1-(4-(5-fluoro-4-(methylamino)-2-oxopyrimidin-1 (2H)-yl)-1-methyl-1H-pyrrolo[2,3-b]pyridin-2-yl)ethyl)-1,2,3,6-tetrahydropyridin-4-yl)-N,N,5-trimethylbenzamide]  4.09 nM
5. Cc1cc(C(=O)N(C)C)cc(F)c1C1=CCN(Cc2cc3c(-n4ccc(N)c(C)c4=O)ccnc3n2C)CC1 [Example 1m87, 4-(1-((4-(4-amino-3-methyl-2-oxopyridin-1 (2H)-yl)-1-methyl-1H-pyrrolo[2,3-b]pyridin-2-yl)methyl)-1,2,3,6-tetrahydropyridin-4-yl)-3-fluoro-N,N,5-trimethylbenzamide]  4.55 nM
6. Cc1cc(C(=O)N(C)C)cc(F)c1C1=CCN([C@@H](C)c2cc3c(-n4cc(F)c(N)cc4=O)ccnc3n2C)CC1 [Example 1m111, (S)-4-(1-(1-(4-(4-amino-5-fluoro-2-oxopyridin-1 (2H)-yl)-1-methyl-1H-pyrrolo[2,3-b]pyridin-2-yl)ethyl)-1,2,3,6-tetrahydropyridin-4-yl)-3-fluoro-N,N,5-trimethylbenzamide]  6.98 nM
7. CNc1cc(=O)n(-c2ccnc3c2cc([C@H](C)N2CC=C(c4c(C)cc(C(=O)N(C)C)cc4F)CC2)n3C)cc1F [Example 1m124, (S)-3-fluoro-4-(1-(1-(4-(5-fluoro-4-(methylamino)-2-oxopyridin-1 (2H)-yl)-1-methyl-1H-pyrrolo[2,3-b]pyridin-2-yl)ethyl)-1,2,3,6-tetrahydropyridin-4-yl)-N,N,5-trimethylbenzamide]  7.6 nM
8. CNc1ccn(-c2ccnc3c2cc([C@H](C)N2CCC(c4c(C)cc(C(=O)N(C)C)cc4F)CC2)n3C)c(=O)c1 [Example 1m109, (S)-3-fluoro-N,N,5-trimethyl-4-(1-(1-(1-methyl-4-(4-(methylamino)-2-oxopyridin-1 (2H)-yl)-1H-pyrrolo[2,3-b]pyridin-2-yl)ethyl)piperidin-4-yl)benzamide]  10.8 nM
9. Cc1cc(C(=O)N(C)C)cc(F)c1C1=CCN([C@@H](C)c2cc3c(-n4cc(F)c(N)c(F)c4=O)ccnc3n2C)CC1 [Example 1m132, (S)-4-(1-(1-(4-(4-amino-3,5-difluoro-2-oxopyridin-1 (2H)-yl)-1-methyl-1H-pyrrolo[2,3-b]pyridin-2-yl)ethyl)-1,2,3,6-tetrahydropyridin-4-yl)-3-fluoro-N,N,5-trimethylbenzamide]  10.8 nM
10. CN(C)C(=O)c1cc(F)c(C2CCN(Cc3cc4c(-n5ccc6c(c5=O)CCN6)ccnc4n3C)CC2)c(F)c1 [Example 1m110, 3,5-difluoro-N,N-dimethyl-4-(1-((1-methyl-4-(4-oxo-1,2,3,4-tetrahydro-5H-pyrrolo[3,2-c]pyridin-5-yl)-1H-pyrrolo[2,3-b]pyridin-2-yl)methyl)piperidin-4-yl)benzamide]  15.1 nM
11. CNc1c(F)cn(-c2ccnc3c2cc([C@H](C)N2CC=C(c4c(C)cc(C(=O)N(C)C)cc4F)CC2)n3C)c(=O)c1F [Example 1m140, (S)-4-(1-(1-(4-(3,5-difluoro-4-(methylamino)-2-oxopyridin-1 (2H)-yl)-1-methyl-1H-pyrrolo[2,3-b]pyridin-2-yl)ethyl)-1,2,3,6-tetrahydropyridin-4-yl)-3-fluoro-N,N,5-trimethylbenzamide]  16.1 nM
12. Cc1cc(C(=O)N(C)C)cc(F)c1C1CCN([C@@H](C)c2cc3c(-n4ccc5c(c4=O)CCN5)ccnc3n2C)CC1 (single isomer, unassigned) [Example 1m121]  16.4 nM
13. [2H]C([2H])([2H])N(C(=O)c1ccc(C2CCN([C@@H](C)c3cc4c(-n5ccc(N)cc5=O)ccnc4n3C)CC2)cc1)C([2H])([2H])[2H] [Example 1af65, (S)-4-(1-(1-(4-(4-amino-2-oxopyridin-1 (2H)-yl)-1-methyl-1H-pyrrolo[2,3-b]pyridin-2-yl)ethyl)piperidin-4-yl)-N,N-bis(methyl-d3)benzamide]  19.6 nM
14. CNc1ccn(-c2ccnc3c2cc([C@H](C)N2CC=C(c4c(C)cc(C(=O)N(C)C)cc4F)CC2)n3C)c(=O)c1F [Example 1m125, (S)-3-fluoro-4-(1-(1-(4-(3-fluoro-4-(methylamino)-2-oxopyridin-1 (2H)-yl)-1-methyl-1H-pyrrolo[2,3-b]pyridin-2-yl)ethyl)-1,2,3,6-tetrahydropyridin-4-yl)-N,N,5-trimethylbenzamide]  25.1 nM
15. [2H]C([2H])([2H])N(C(=O)c1cc(C)c(C2=CCN(Cc3cc4c(-n5ccc(N)nc5=O)ccnc4n3C)CC2)c(F)c1)C([2H])([2H])[2H] [Example 1m78, 4-(1-((4-(4-amino-2-oxopyrimidin-1 (2H)-yl)-1-methyl-1H-pyrrolo[2,3-b]pyridin-2-yl)methyl)-1,2,3,6-tetrahydropyridin-4-yl)-3-fluoro-5-methyl-N,N-bis(methyl-d3)benzamide]  26.6 nM
16. CNc1ccn(-c2ccnc3c2cc(CN2CC=C(c4c(F)cc(C(=O)N(C)C)cc4F)CC2)n3C)c(=O)c1 [Example 1m90, 3,5-difluoro-N,N-dimethyl-4-(1-((1-methyl-4-(4-(methylamino)-2-oxopyridin-1 (2H)-yl)-1H-pyrrolo[2,3-b]pyridin-2-yl)methyl)-1,2,3,6-tetrahydropyridin-4-yl)benzamide]  28.8 nM
17. CN(C)C(=O)c1cc(F)c(C2CCN(Cc3cc4c(-n5cc(F)c(N)c(F)c5=O)ccnc4n3C)CC2)c(F)c1 [Example 1m119, 4-(1-((4-(4-amino-3,5-difluoro-2-oxopyridin-1 (2H)-yl)-1-methyl-1H-pyrrolo[2,3-b]pyridin-2-yl)methyl)piperidin-4-yl)-3,5-difluoro-N,N-dimethylbenzamide]  36.4 nM
18. CNc1ccn(-c2ccnc3c2cc(CN2CCC(c4c(F)cc(C(=O)N(C)C)cc4F)CC2)n3C)c(=O)c1 [Example 1m91, 3,5-difluoro-N,N-dimethyl-4-(1-((1-methyl-4-(4-(methylamino)-2-oxopyridin-1 (2H)-yl)-1H-pyrrolo[2,3-b]pyridin-2-yl)methyl)piperidin-4-yl)benzamide]  45.5 nM
19. CNc1ccn(-c2ccnc3c2cc([C@@H](C)N2CC=C(c4c(C)cc(C(=O)N(C)C)cc4F)CC2)n3C)c(=O)c1 (single isomer, unassigned) [Example 1m105]  80.6 nM
20. [2H]C([2H])([2H])N(C(=O)c1ccc(C2CCN([C@@H](C)c3cc4c(-n5cc(F)c(N)nc5=O)ccnc4n3C)CC2)cc1)C([2H])([2H])[2H] [Example 1m80, (S)-4-(1-(1-(4-(4-amino-5-fluoro-2-oxopyrimidin-1 (2H)-yl)-1-methyl-1H-pyrrolo[2,3-b]pyridin-2-yl)ethyl)piperidin-4-yl)-N,N-bis(methyl-d3)benzamide]  133 nM
21. CNc1ccn(-c2ccnc3c2cc(CN2CCC(c4ccc(C(=O)N(C)C)cc4Cl)CC2)n3C)c(=O)c1 [Example 1d37, 3-Chloro-N,N-dimethyl-4-[1-[[1-methyl-4-[4-(methylamino)-2-oxo-1-pyridyl]pyrrolo[2,3-b]pyridin-2-yl]methyl]-4-piperidyl]benzamide]  148 nM
22. CN(C)C(=O)c1ccc(C2=CCN(Cc3cc4c(-n5ccc6c(c5=O)CCN6)ccnc4n3C)CC2)c(OC(F)(F)F)c1 [Example 1m146, NN-dimethyl-4-(1-((1-methyl-4-(4-oxo-1,2,3,4-tetrahydro-5H-pyrrolo[3,2-c]pyridin-5-yl)-1H-pyrrolo[2,3-b]pyridin-2-yl)methyl)-1,2,3,6-tetrahydropyridin-4-yl)-3-(trifluoromethoxy)benzamide]  156 nM
23. CNc1ccn(-c2ccnc3c2cc([C@H](C)N2CC=C(c4c(C)cc(C(=O)N(C)C)cc4F)CC2)n3C)c(=O)c1OC [Example 1m138, (S)-3-fluoro-4-(1-(1-(4-(3-methoxy-4-(methylamino)-2-oxopyridin-1 (2H)-yl)-1-methyl-1H-pyrrolo[2,3-b]pyridin-2-yl)ethyl)-1,2,3,6-tetrahydropyridin-4-yl)-N,N,5-trimethylbenzamide]  229 nM
